Experimental data reported in patent US20230382984A1, “TRABD PROTEIN, AND MONOCLONAL ANTIBODY THEREOF, AND ISOLATION, AMPLIFICATION AND USE THEREOF” (priority 2022, published 2023).
One block for each molecule: values may come before it.

Experiments:
TRABD protease = conditions: cited from earlier work; for function of TRABD protein: divalent metal ion complexing agent; for TRABD protease activity: early study, metal ions
TRABD2A protein [1] = biological target: T1, TRABD2A protein (Homo sapiens, UniProt Q86V40); conditions: different view; metal ions; cited from earlier work
T1 sequence (Q86V40 22-480): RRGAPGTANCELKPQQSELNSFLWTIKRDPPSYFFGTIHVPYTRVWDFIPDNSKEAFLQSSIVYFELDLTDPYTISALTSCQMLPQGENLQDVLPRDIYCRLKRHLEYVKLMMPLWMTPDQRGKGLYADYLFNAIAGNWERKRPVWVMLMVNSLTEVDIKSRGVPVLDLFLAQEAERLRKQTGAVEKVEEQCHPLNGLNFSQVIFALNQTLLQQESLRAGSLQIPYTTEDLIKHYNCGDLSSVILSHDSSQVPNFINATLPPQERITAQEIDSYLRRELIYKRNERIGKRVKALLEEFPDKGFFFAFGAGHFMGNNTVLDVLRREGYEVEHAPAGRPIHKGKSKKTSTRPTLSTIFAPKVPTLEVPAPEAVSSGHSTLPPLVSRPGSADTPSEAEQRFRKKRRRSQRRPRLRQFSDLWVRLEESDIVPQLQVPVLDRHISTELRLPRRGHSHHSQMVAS

[2] = biological target: T2, TRABD2A metalloprotease on CD8^+ T cells (Homo sapiens, UniProt Q86V40); assay: Killing activity of CD8+ T cells on target cells after metal cofactor intervention of TRABD2A; assay type: cell-based; conditions: metal cations at different concentrations acting on CD8+ T cells; target cells CEM.T2 and MGC; FIG. 4A
T2 construct: action of metal ions Mn^2+, Co^2+ and Ni^2+ on TRABD2A metalloprotease on CD8^+ T cells; endogenous in cells
T2 sequence (Q86V40 22-480): T1 sequence (Q86V40 22-480)
Text: Since TRABD2A is a metalloprotease and its activity is affected by metal ions, and the metal ion Mn^2+ having an accelerating effect on TRABD2A metalloprotease activity and metal ions Co^2+ and Ni^2+ having an inhibiting effect were examined. The effect of the TRABD2A protein on CD8^+ T cells was observed by the action of metal ions Mn^2+, Co^2+ and Ni^2+ on TRABD2A metalloprotease on CD8^+ T cells.

[3] = test system: CD8^+ T cells and target cells; assay: CCK8 and flow cytometry detection of toxic effect of metal cations; conditions: concentration of 20 μM
Text: FIG. 4A show the effect on the target cell killing ability of CD8^+ T cells after metal cofactor intervention of TRABD2A; • A: detection of the killing activity of the CD8^+ T cells on target cells CEM.T2 when metal cations Co^2+, Ni^2+ and Mn^2+ at different concentrations act on CD8^+ T cells; • B: detection of the killing activity of the CD8^+ T cells on target cells MGC when metal cations Co^2+, Ni^2+ and Mn^2+ at different concentrations act on CD8^+ T cells; • C: CCK8 and flow cytometry detection of the toxic effect of metal cations Co^2+, Ni^2+ and Mn^2+ at different concentrations on target cells.

[4] = biological target: T3, TRABD2B metalloprotease on CD8^+ T cells (Homo sapiens, UniProt A6NFA1); assay: Killing activity of CD8+ T cells on target cells after metal cofactor intervention with TRABD2B; assay type: cell-based; conditions: Ni2+ at different concentrations; target cells CEM.T2; FIG. 4B
T3 construct: action of metal ion Ni^2+ upon TRABD2B metalloprotease on CD8^+ T cells; endogenous in cells
T3 sequence (A6NFA1 20-486): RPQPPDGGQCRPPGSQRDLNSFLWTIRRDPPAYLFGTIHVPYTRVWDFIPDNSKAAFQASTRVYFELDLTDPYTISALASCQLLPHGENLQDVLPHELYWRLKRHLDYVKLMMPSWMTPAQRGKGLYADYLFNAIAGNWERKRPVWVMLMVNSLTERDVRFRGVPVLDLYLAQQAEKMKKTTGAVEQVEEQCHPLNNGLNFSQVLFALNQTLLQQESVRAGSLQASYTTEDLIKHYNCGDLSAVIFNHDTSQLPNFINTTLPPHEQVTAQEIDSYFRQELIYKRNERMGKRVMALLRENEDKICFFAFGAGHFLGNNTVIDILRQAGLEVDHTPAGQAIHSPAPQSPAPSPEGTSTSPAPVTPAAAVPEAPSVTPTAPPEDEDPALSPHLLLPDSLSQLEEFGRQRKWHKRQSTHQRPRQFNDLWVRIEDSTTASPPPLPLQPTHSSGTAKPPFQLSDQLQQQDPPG
Text: Since TRABD2B is a metalloprotease whose activity is affected by metal ions, metal ion Mn^2+ that promotes the TRABD2B metalloprotease activity was examined. The effect of the TRABD2B protein on CD8^+ T cells was observed by the action of metal ion Ni^2+ upon TRABD2B metalloprotease on CD8^+ T cells.

target cells = assay: CCK8 and flow cytometry detection of toxic effect of Ni2+ on target cells; assay type: cell-based; conditions: concentration 20 μM
[5] = biological target: TRABD2A protein (antigen) (UniProt Q86V40); assay: ELISA; negative control; fit value beyond top concentration
[6] = biological target: T4, TRABD2A protein (antigen) (UniProt Q86V40 22-480); assay: ELISA
T4 chain: T1 sequence (Q86V40 22-480)

[7] = biological target: T5, TRABD2A protein on CD8^+ T cells (Homo sapiens, UniProt Q86V40); assay: Killing of target cells by CD8+ T cells after intervention with TRABD2A antibody; assay type: cell-based; conditions: antibody removed or unremoved after incubation; FIG. 7A
T5 construct: action of metal ions Mn^2+, Co^2+ and Ni^2+ on TRABD2A metalloprotease on CD8^+ T cells; endogenous in cells
T5 sequence (Q86V40 22-480): T1 sequence (Q86V40 22-480)
Method: Two modes were adopted for intervening with TRABD2A protein on CD8^+ T cells, and the difference of the two modes was that the CD8^+ T cells, after incubation with the antibody, kill the target cells with residual blocking antibody removed or unremoved.

TRABD2A protein [8] = biological target: T1, TRABD2A protein; assay: Binding of synthesized TRABD2A antibodies to antigen; conditions: detection with antigen; FIG. 6A
Text: Three antibodies anti-TRABD2A-1 (amino acid sequences of heavy and light chains are set forth in SEQ ID NOs: 7 and 8, respectively), anti-TRABD2A-2 (amino acid sequences of heavy and light chains are set forth in SEQ ID NOs: 13 and 14, respectively) and negative control (amino acid sequences of heavy and light chains are set forth in SEQ ID NOs: 19 and 20, respectively) synthesized in Example 5-1 were used. […] After concentration of the antibodies, the protein concentrations were measure by A280, and the concentrations of anti-TRABD2A-1, anti-TRABD2A-2 and negative control were 0.92 mg/mL, 1.6 mg/mL and 2.98 mg/mL, respectively. The proteins were snap frozen in liquid nitrogen and stored at −80° C. for later use.

TRABD2B protein = biological target: T6, TRABD2B protein (Homo sapiens, UniProt A6NFA1); assay: Binding of anti-TRABD2A/2B bispecific antibody to antigen TRABD2B protein; conditions: detection with antigen; FIG. 6C
T6 sequence (A6NFA1 20-486): T3 sequence (A6NFA1 20-486)
Method: (§1) The bispecific antibody (amino acid sequences of heavy and light chains are set forth in SEQ IN NOs: 29 and 30, respectively) and negative control (amino acid sequences of heavy and light chains are set forth in SEQ IN NOs: 33 and 24, respectively) antibody synthesized in Example 5-3 were used. […] After the antibodies were concentrated, the protein concentration of anti-TRABD2A/2B was 1.23 mg/mL and that of the negative control was 1.02 mg/mL, as measured by A280. The proteins were snap frozen in liquid nitrogen and stored at −80° C. for later use.

[9] = test system: TRABD2A and TRABD2B proteins; assay: Killing of target cells by CD8+ T cells under intervention with bispecific anti-TRABD2A/2B antibody; assay type: cell-based, human; conditions: FIG. 7C
Text: The effect of the bispecific antibody blocking both TRABD2A and TRABD2B proteins on target cell killing ability of CD8^+ T cells were examined.

TRABD2A protein [10] = biological target: T1, TRABD2A protein; assay: Binding of anti-TRABD2A/2B bispecific antibody to antigen TRABD2A protein; conditions: detection with antigen; FIG. 6C
Method: as §1

Molecule: c1cnc2c(c1)ccc1cccnc12 [1,10-phenanthroline]
function of TRABD protein (TRABD protease): inhibited

Molecule: [Ca+2] [Ca^2+]
activity of the TRABD2A protein (TRABD2A protein [1]): independent

Molecule: [Co+2] [Co^2+]
tumor killing ability of CD8^+ T cells [2]: enhanced
toxic effect on CD8^+ T cells and target cells [3]: little toxic effect
activity of the TRABD2A protein (TRABD2A protein [1]): inhibited
TRABD protease activity (TRABD protease): increase

Molecule: [Cu+2] [Cu^2+]
TRABD protease activity (TRABD protease): opposite effect

Molecule: O=C(O)CN(CCN(CC(=O)O)CC(=O)O)CC(=O)O [EDTA]
function of TRABD protein (TRABD protease): inhibited

Molecule: [Fe+3] [Fe^3+]
activity of the TRABD2A protein (TRABD2A protein [1]): independent

Molecule: [Mg+2] [Mg^2+]
activity of the TRABD2A protein (TRABD2A protein [1]): independent

Molecule: [Mn+2] [Mn^2+]
tumor killing ability of CD8^+ T cells [2]: not enhanced
TRABD protease activity (TRABD protease): increase

Molecule: [Ni+2] [Ni^2+]
tumor killing ability of CD8^+ T cells [4]: enhanced
tumor killing ability of CD8^+ T cells [2]: enhanced
toxic effect on CD8^+ T cells and target cells [3]: little toxic effect
activity of the TRABD2A protein (TRABD2A protein [1]): inhibited
TRABD protease activity (TRABD protease): opposite effect
toxic effect on cells (target cells): little toxic effect

EC50 [5]: 14.1 µg/mL
Molecule: negative control antibody of Example 6-1

EC50 [6]: 0.306 µg/mL
binding to antigen (TRABD2A protein [8]): high binding efficiency
B1: anti-TRABD2A-1 (antibody)
heavy: DASTLQRGVPSRFGGSGQMTQSPSSASTLQRGVPSRFGGSGSQSINRASTLQRGVPSRFGGSGGKAPKLVIYAASSLQSGVPSRFSGSGSGTDFTLTISSLQ
light: ASTLQRGVISWVRASTLQRGVPSRFGGSGPIFGTANYAQKFQGRVTITADESTSTAYMELSSLRSEDTAVYYASTLQRGVPSRFGGSGYYWGQGTPVTVSS
effect on target cell killing ability of CD8^+ T cells [7]: enhanced effect

binding to TRABD2B (TRABD2B protein): capable of binding
binding to TRABD2A (TRABD2A protein [10]): capable of binding
B2: anti-TRABD2A/2B bispecific antibody: bispecific antibody recognizing both TRABD2A and TRABD2B; heavy and light chains SEQ ID NOs: 29 and 30 (antibody)
heavy: YQSQSINRYLNWYQQKPGKSNYLNWAPKLVIYAASSLQYCQQYNFYPLTFGYLNWYQSSGTYLNWYQQRPGKAPSSGTYQRPGKAPGGTKVSNYLNWYQSN
light: YAQKFQGRVTITVKVSCKASGGTFSSYAISWVRQAPGQGLEWMGQVQLVQSGAEVKKPGSSGIIPIFGTANADESTSTAYMELSSLRSEDTAVYYCARTRGYS
effect on the killing of target cells by CD8^+ T cells [9]: enhancing effect

EC50 [6]: 0.128 µg/mL
binding to antigen (TRABD2A protein [8]): high binding efficiency
B3: anti-TRABD2A-2 (antibody)
heavy: APKLLIYAASSLRSGVPSRFSGSTCRASQSINRYLNWYQAPKLLIYAASSLRSGVPSRFSGSYAASSLQSGVPSRFSGSGSGTDFTLTISSLQPEDFATYYCQQGGTKV
light: YYWGQGTPVTVSKKPGSSVKVSAPKLLIYAASSLRSGVPSRFSGSGTFSSYAISWVRQAPGQGLEWMGGIIPIFGTANYAQKFQGRVTITADESTSTAYMELSSLRSEDTA
effect on target cell killing ability of CD8^+ T cells [7]: enhanced effect
